Source: publication PMC8008393, “Preclinical Lead Optimization of a 1,2,4-Triazole Based Tankyrase Inhibitor” (Journal of Medicinal Chemistry, 2020)
Values after ≈ are worked out from the molar mass of the structure shown. Where two headings read alike, the source gives them in different places.

Legend:
[1] = test system: WNT/β-catenin signaling pathway reporter in HEK293 cells; assay: cells; format: cell-based, human; details: for activity in words: assay not given (TNKS2 / HEK293), Supplementary Table 1; for IC50: Homo sapiens, HEK293, read-out: HEK293 IC50, WNT/β-catenin reporter
Protocol: (§1) In the first round of the optimization campaign, we prepared single-point modifications changing any of the four regions in 1 (Figure 1) while leaving the other regions constant. In the following stages of the optimization campaign, additional East, West, and South moieties were also utilized, combining the best structural elements of the first single-point modification round. For the optimization, in vitro ADME properties and solubility of selected compounds were measured.

CYP3A4 = target: T1, CYP3A4 (Homo sapiens, UniProt P08684); assay: CYP3A4 inhibition; format: in vitro ADME
T1 construct: Cyprotex
T1 sequence (P08684 whole entry, species assumed): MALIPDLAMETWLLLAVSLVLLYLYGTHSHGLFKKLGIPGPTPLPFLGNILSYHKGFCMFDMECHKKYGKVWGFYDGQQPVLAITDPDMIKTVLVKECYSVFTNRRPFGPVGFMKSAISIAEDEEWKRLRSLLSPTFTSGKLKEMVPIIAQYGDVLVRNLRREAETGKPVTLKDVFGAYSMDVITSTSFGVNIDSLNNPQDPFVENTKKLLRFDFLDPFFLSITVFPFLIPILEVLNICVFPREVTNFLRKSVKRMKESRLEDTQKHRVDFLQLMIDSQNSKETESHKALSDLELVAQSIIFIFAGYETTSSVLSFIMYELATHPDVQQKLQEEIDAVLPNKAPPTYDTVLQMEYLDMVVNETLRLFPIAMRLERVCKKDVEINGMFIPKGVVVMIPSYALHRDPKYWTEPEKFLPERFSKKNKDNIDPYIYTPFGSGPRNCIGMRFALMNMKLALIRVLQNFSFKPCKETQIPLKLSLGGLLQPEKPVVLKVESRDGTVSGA
Protocol: (§2) Kinetic solubility assay was performed following standard protocols of Mercachem. The following assays were performed according to the standard protocols of Cyprotex: Caco-2 permeability, dog microsomal stability, hepatocyte stability (human, mouse, dog, rat, and cynomolgus), CYP3A4 inhibition, mouse plasma stability, mouse plasma protein binding, and Ames test.

Caco-2 permeability = format: in vitro ADME; details: human
Protocol: as §2

[2] = hepatocyte stability, human; format: in vitro ADME; details: hepatocytes
Protocol: as §2

[3] = test system: PARPs/ARTDs ARTD1/2/3/4/7/8/10/12; assay: PARP/ARTD family selectivity, biochemical assays
in vivo = assay: in vivo
Protocol: as §1
The pharmacokinetical analyses in mice were performed according to the standard protocols of Medicilon and, as previously described,[9] using 3 animals per treatment group using 5% DMSO, 50% PEG400 (both Sigma-Aldrich) and 45% saline as vehicle.

kinetic solubility assay = format: physicochemical; details: for solubility: Table 2
Protocol: as §2

[4] = microsomal stability, human liver microsomes; format: in vitro ADME; details: for half-life at 1 μM: pH 7.4, read-out: Microsomal stability t1/2 human
Protocol: (§3) Test compounds in DMSO (10 mM) were further diluted to 100 μM in acetonitrile. Human or mouse liver microsomes (BioIVT) from selected species are incubated in duplicate with the test compound at a final concentration of 1 μM in 0.1 M potassium phosphate buffer (pH 7.4) containing 3.3 mM MgCl2, 0.5 mg/mL microsomal protein, in the presence or absence of NADPH (1 mM). Incubations were performed at 37 °C in a total volume of 500 μL. Control incubations with reference substances were included for each experiment. At t = 0, 5, 15, 30, 45 min, an amount of 50 μL of the incubation mixture was transferred to a quench plate containing acetonitrile and internal standard (200 nM labetalol) cooled at 4 °C. After the last time point, the quench plates are mixed thoroughly and centrifuged for 15 min at 3700 rpm and 10 °C (Eppendorf 5804R). The supernatant was transferred to a 96-well plate and analyzed by LCMS (Vanquish Horizon UHPLC equipped with a diode array detector coupled to a Q Exactive focus hybrid quadrupole-Orbitrap mass spectrometer). The metabolic stability is evaluated by plotting the natural logarithm of the percentage test compound remaining versus time and performing linear regression.

[5] = microsomal stability, mouse liver microsomes; format: in vitro ADME; details: for half-life at 1 μM: pH 7.4, read-out: Microsomal stability t1/2 mouse
Protocol: as §3

TNKS2 = target: T2, TNKS2 (Homo sapiens, UniProt Q9H2K2); format: biochemical
T2 construct: TNKS2 (residues 873–1162); made in house
T2 sequence (Q9H2K2 873-1162): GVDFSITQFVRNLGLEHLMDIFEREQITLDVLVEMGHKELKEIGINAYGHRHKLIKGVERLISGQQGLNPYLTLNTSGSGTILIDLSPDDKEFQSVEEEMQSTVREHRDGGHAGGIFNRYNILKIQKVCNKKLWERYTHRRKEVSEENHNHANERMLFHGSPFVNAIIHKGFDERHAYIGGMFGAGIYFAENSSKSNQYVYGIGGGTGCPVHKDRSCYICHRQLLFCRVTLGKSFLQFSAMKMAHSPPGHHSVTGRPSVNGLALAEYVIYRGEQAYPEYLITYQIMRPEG
Protocol: as §1
Human tankyrase active constructs for TNKS1 (residues 1030–1317) and TNKS2 (residues 873–1162) and other ARTD/PARP enzymes used in the assays were expressed and purified as previously described.[34],[35] The enzymatic assay is based on the measurement of unreacted NAD^+, which is chemically converted into a fluorescent compound.[36] The fluorescence intensity was measured with excitation/emission wavelengths of 372 and 444 nm, respectively, using Tecan Infinity M1000 Pro. The compounds were prepared in half log dilution series and the reactions were done in quadruplicates with protein and compound controls to exclude the effect of compound autofluorescence. All reactions were done at ambient temperature. 20 nM TNKS1 or 5 nM TNKS2 was incubated for 20 h in assay buffer (50 mM BTP, pH 7.0, 0.5 mM TCEP, 0.01% Triton-X100) with compound and 10 μM or 500 nM NAD^+, respectively. […] For ARTD3/PARP3, 20 nM enzyme was incubated for 4 h with compound and 500 nM NAD^+ in assay buffer (50 mM PIPES, pH 7.0, 5 mM MgCl2, 20 μg/mL activated DNA, 0.2 mg/mL BSA). The assay conditions for the other ARTD enzymes were used as previously described.[37]

[6] = A-B, read-out: Caco-2 permeability Papp AB
[7] = pH 7.4, read-out: Kinetic Solubility pH 7.4

## 3-(trans-3-(4-(2-Chlorophenyl)-5-(pyrimidin-4-yl)-4H-1,2,4-triazol-3-yl)cyclobutyl)isoindolin-1-one [compound 51]
[1]
  activity in words: activity was restored

## N#Cc1ccc2c(c1)[nH]c(=O)n2[C@H]1C[C@H](c2nnc(-c3ccncn3)n2-c2ccccc2Cl)C1 [compound 1]
CYP3A4
  IC50: 1.26 µM
Caco-2 permeability; [6]
  Papp A→B: 100 nm/s
[2]
  hepatocyte CLint: 9.8 µL/min/1e6 cells
[3]
  IC50: > 10 µM
In vivo; mouse po 5 mg/kg
  CL: 34.0 L/h/kg
  Vd: 74.2 L/kg
In vivo; mouse po 5 mg/kg, 5 mg/kg
  T1/2: 90 min
In vivo; mouse, in vivo, po, 5 mg/kg
  AUC(0-inf): 0.147 µg·h/mL
  AUC(0-t): 0.145 µg·h/mL
  Cmax: 0.124 µg/mL
  MRT inf: 96.6 min
  Tmax: 15 min
  bioavailability: 47%
In vivo; mouse, in vivo, po, 5 mg/kg, T1/2, mouse po 5 mg/kg
  half-life: 90.6 min
Kinetic solubility assay; PBS, pH = 7
  solubility kinetic: 12 µM (≈ 5.63 µg/mL)
Kinetic solubility assay; [7]
  solubility kinetic: 12 µM (≈ 5.63 µg/mL)
[4]; pH 7.4
  microsomal CLint at 1 μM: 242 µL/min/mg
[4]
  half-life at 1 μM: 6 min
[5]; pH 7.4
  microsomal CLint at 1 μM: 204 µL/min/mg
[5]
  half-life at 1 μM: 7 min

## Cn1c(=O)n([C@H]2C[C@H](c3nnc(-c4ccncn4)n3-c3ccccc3Cl)C2)c2ccc(C#N)cc21 [compound 17]
TNKS2
  IC50: 0.034 µM
[1]
  IC50: 0.116 µM

## N#Cc1ccc2c(c1)oc(=O)n2[C@H]1C[C@H](c2nnc(-c3ccncn3)n2-c2ccccc2Cl)C1 [compound 18, 3-(trans-3-(4-(2-Chlorophenyl)-5-(pyrimidin-4-yl)-4H-1,2,4-triazol-3-yl)cyclobutyl)-2-oxo-2,3-dihydrobenzo[d]oxazole-6-carbonitrile]
TNKS2
  IC50: 0.048 µM
[1]
  IC50: 0.274 µM

## N#Cc1ccc2c(c1)[nH]c(=O)n2C12CC(c3nnc(-c4ccncn4)n3-c3ccccc3Cl)(C1)C2 [compound 19, 1-(3-(4-(2-Chlorophenyl)-5-(pyrimidin-4-yl)-4H-1,2,4-triazol-3-yl)bicyclo[1.1.1]pentan-1-yl)-2-oxo-2,3-dihydro-1H-benzo[d]imidazole-5-carbonitrile]
TNKS2
  IC50: 0.0036 µM
[1]
  IC50: 0.0047 µM
Caco-2 permeability
  efflux ratio at 2 h, 10 µM: 5.3
Caco-2 permeability; [6]
  Papp A→B at 2 h, 10 µM: 50 nm/s
Kinetic solubility assay; [7]
  solubility kinetic: 1.5 µM (≈ 0.721 µg/mL)
[4]; pH 7.4
  microsomal CLint at 0.75 h, 1 µM: 200 µL/min/mg
[4]
  half-life at 1 μM: 7 min
[5]; pH 7.4
  microsomal CLint at 0.75 h, 1 µM: 256 µL/min/mg
[5]
  half-life at 1 μM: 5 min

## O=C(N[C@H]1C[C@H](c2nnc(-c3ccccn3)n2-c2ccccc2F)C1)c1ccnc2cccnc12 [compound 26]
Kinetic solubility assay; pH 7.4
  solubility: > 80 µM

## Cc1cccc(-c2nnc([C@H]3C[C@H](NC(=O)c4ccnc5cccnc45)C3)n2-c2ccccc2F)n1 [compound 30]
Kinetic solubility assay; pH 7.4
  solubility: > 80 µM

## Cc1cccc(-c2nnc([C@H]3C[C@H](NC(=O)c4ccnc5cc(F)cnc45)C3)n2-c2ccccc2F)n1 [compound 31]
Kinetic solubility assay; pH 7.4
  solubility: > 80 µM

## O=C(N[C@H]1C[C@H](c2nnc(-c3ccc(OC(F)F)cn3)n2-c2ccccc2F)C1)c1ccnc2cccnc12 [compound 34]
Kinetic solubility assay; pH 7.4
  solubility: 14 µM (≈ 7.44 µg/mL)

## O=C(N[C@H]1C[C@H](c2nnc(-c3ccc(OC(F)F)cn3)n2-c2ccccc2F)C1)c1ccnc2cc(F)cnc12 [compound 35]
Kinetic solubility assay; pH 7.4
  solubility: 54 µM (≈ 29.7 µg/mL)

## CN(C(=O)c1ccccn1)[C@H]1C[C@H](c2nnc(-c3ccncn3)n2-c2ccccc2Cl)C1 [compound 44]
[1]
  activity in words: inactive

## O=C(Cc1ccccc1)N[C@H]1C[C@H](c2nnc(-c3ccncn3)n2-c2ccccc2Cl)C1 [compound 52]
[1]
  activity in words: inactive

## O=C(N[C@H]1C[C@H](c2nnc(-c3ccncn3)n2-c2ccccc2Cl)C1)C1CCCCC1 [compound 53]
[1]
  activity in words: inactive

## CC(=O)N[C@H]1C[C@H](c2nnc(-c3ccncn3)n2-c2ccccc2Cl)C1 [compound 54]
[1]
  activity in words: inactive

## N#Cc1ccc2c(c1)[nH]c(=O)n2[C@H]1C[C@H](c2nnc(-c3ccncn3)n2-c2ccccc2C(F)(F)F)C1 [compound 66]
[1]
  activity in words: comparable activities to the previous lead 1

## N#Cc1ccc2c(c1)[nH]c(=O)n2[C@H]1C[C@@H](c2nnc(-c3ccncn3)n2-c2ccccc2Cl)C1 [compound 75]
TNKS2
  potency in words: decreased potency
